Measured values from patent publication US10239873B2, “7-azaindole or 4,7-diazaindole derivatives as IKKϵ epsilon and TBK1 inhibitor and pharmaceutical composition comprising same” (GREEN CROSS CORPORATION, priority 2015, dated 2019).

Target: T1, TBK1 (Homo sapiens, UniProt Q9UHD2)
T1 construct: purchased Promega (Invitrogen is also named in the same bracket) V4158; PR8031B; V3991 (not assigned to the two kinases)
T1 sequence (Q9UHD2 1-729): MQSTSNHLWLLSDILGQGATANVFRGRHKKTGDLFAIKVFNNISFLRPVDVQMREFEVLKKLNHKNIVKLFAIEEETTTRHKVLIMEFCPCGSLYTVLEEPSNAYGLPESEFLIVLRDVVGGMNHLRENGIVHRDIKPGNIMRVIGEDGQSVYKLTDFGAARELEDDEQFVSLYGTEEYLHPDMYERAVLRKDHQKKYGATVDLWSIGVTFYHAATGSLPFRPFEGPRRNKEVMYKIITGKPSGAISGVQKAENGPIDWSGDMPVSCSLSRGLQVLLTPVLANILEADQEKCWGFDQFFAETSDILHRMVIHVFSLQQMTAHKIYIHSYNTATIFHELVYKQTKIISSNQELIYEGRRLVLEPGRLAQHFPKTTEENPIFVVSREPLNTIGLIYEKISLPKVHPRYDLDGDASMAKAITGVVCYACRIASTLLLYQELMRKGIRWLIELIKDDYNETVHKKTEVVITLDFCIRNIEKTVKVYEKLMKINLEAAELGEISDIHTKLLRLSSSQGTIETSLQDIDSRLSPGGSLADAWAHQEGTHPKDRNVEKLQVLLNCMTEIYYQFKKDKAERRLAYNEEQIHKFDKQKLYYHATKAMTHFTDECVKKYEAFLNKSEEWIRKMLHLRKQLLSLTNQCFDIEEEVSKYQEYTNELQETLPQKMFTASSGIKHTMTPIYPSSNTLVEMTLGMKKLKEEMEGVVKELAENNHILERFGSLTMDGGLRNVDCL
Assay: ADP-Glo Kinase Assay, inhibition activity on TBK1
Type: biochemical
Procedure, shortened: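 Kinase activity measured with the ADP-Glo luminescent ADP-detection kit per manufacturer's protocol, using IKKε or TBK1 kinase enzyme systems. Reaction buffer: 40 mM Tris (pH 7.5), 20 mM MgCl2, 0.1 mg/mL BSA; luminescence read on a luminometer.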

Row | Structure (SMILES) | IC50
1 | CS(=O)(=O)c1ccc(-c2cnc3[nH]cc(C4=CCN(C(=O)OC5CCCC5)CC4)c3c2)cc1 [Example 173, Cyclopentyl 4-(5-(4-(methylsulfonyl)phenyl)-1H-pyrrolo[2,3-b]pyridin-3-yl)-5,6-dihydropyridine-1(2H)-carboxylate] | 120 nM
2 | Cc1ccc(C(=O)N2CC=C(c3c[nH]c4ncc(-c5ccc(S(N)(=O)=O)cc5)cc34)CC2)s1 [Example 212, 4-(3-(1-(5-methylthiophene-2-carbonyl)-1,2,3,6-tetrahydropyridin-4-yl)-1H-pyrrolo[2,3-b]pyridin-5-yl)benzensulfonamide] | 2600 nM
3 | O=C(c1cccs1)N1CC=C(c2c[nH]c3ncc(-c4ccc(S(=O)(=O)C5CC5)cc4)cc23)CC1 [Example 196, (4-(5-(4-(cyclopropylsulfonyl)phenyl)-1H-pyrrolo[2,3-b]pyridin-3-yl)-5,6-dihydropyridin-1(2H)-yl)(thiophen-2-yl)methanone] | 250 nM
4 | CCS(=O)(=O)c1cccc(-c2cnc3[nH]cc(C4=CCN(C(=O)OC5CCCC5)CC4)c3c2)c1 [Example 174, Cyclopentyl 4-(5-(3-(ethylsulfonyl)phenyl)-1H-pyrrolo[2,3-b]pyridin-3-yl)-5,6-dihydropyridine-1(2H)-carboxylate] | 190 nM
5 | CC1=C(c2c[nH]c3ncc(-c4ccc(CN5CCOCC5)s4)cc23)CCN(C(=O)NC2CCCC2)C1 [Example 131, N-cyclopentyl-3-methyl-4-(5-(5-(morpholinomethyl)thiophen-2-yl)-1H-pyrrolo[2,3-b]pyridin-3-yl)-5,6-dihydropyridine-1(2H)-carboxamide] | 220 nM
6 | COc1ccc(-c2cnc3[nH]cc(C4=CCN(C(=O)NC5CCOC5)CC4)c3c2)cc1OC (stereo not shown) [Example 81, 4-(5-(3,4-Dimethoxyphenyl)-1H-pyrrolo[2,3-b]pyridin-3-yl)-N-(tetrahydrofuran-3-yl)-5,6-dihydropyridine-1(2H)-carboxamide] | 21 nM
7 | CCCOc1ccc(-c2cnc3[nH]cc(C4=CCN(C(=O)OC(C)(C)C)CC4)c3c2)cc1 [Example 243, tert-butyl 4-(5-(4-propoxyphenyl)-1H-pyrrolo[2,3-b]pyridin-3-yl)-5,6-dihydropyridine-1(2H)-carboxylate] | 1700 nM
8 | O=C(c1cccs1)N1CC=C(c2c[nH]c3ncc(-c4csc(CN5CCOCC5)c4)cc23)CC1 [Example 207, (4-(5-(5-(morpholinomethyl)thiophen-3-yl)-1H-pyrrolo[2,3-b]pyridin-3-yl)-5,6-dihydropyridin-1(2H)-yl)(thiophen-2-yl)methanone] | 48 nM
9 | O=C(OC1CCCC1)N1CC=C(c2c[nH]c3ncc(-c4ccc(S(=O)(=O)N5CCOCC5)cc4)cc23)CC1 [Example 181, Cyclopentyl 4-(5-(4-(morpholinosulfonyl)phenyl)-1H-pyrrolo[2,3-b]pyridin-3-yl)-5,6-dihydropyridine-1(2H)-carboxylate] | 370 nM
10 | O=C(NC1CCCC1)N1CC=C(c2c[nH]c3ncc(-c4ccc(CN5CCOCC5)s4)nc23)CC1 [Example 229, N-cyclopentyl-4-(2-(5-(morpholinomethyl)thiophen-2-yl)-5H-pyrrolo[2,3-b]pyrazin-7-yl)-5,6-dihydropyridine-1(2H)-carboxamide] | 66 nM
11 | CN(C(=O)N1CC=C(c2c[nH]c3ncc(-c4cccc(S(N)(=O)=O)c4)cc23)CC1)C1CCCC1 [Example 218, N-cyclopentyl-N-methyl-4-(5-(3-sulfamoylphenyl)-1H-pyrrolo[2,3-b]pyridin-3-yl)-5,6-dihydropyridine-1(2H)-carboxamide] | > 10000 nM
12 | O=C(OC1CCCCC1)N1CC=C(c2c[nH]c3ncccc23)CC1 [Example 143, Cyclohexyl 4-(1H-pyrrolo[2,3-b]pyridin-3-yl)-5,6-dihydropyridine-1(2H)-carboxylate] | 1000 nM
13 | O=C(OC1CCCC1)N1CC=C(c2c[nH]c3ncc(-c4csc(CN5CCOCC5)c4)cc23)CC1 [Example 185, Cyclopentyl 4-(5-(5-(morpholinomethyl)thiophen-3-yl)-1H-pyrrolo[2,3-b]pyridin-3-yl)-5,6-dihydropyridine-1(2H)-carboxylate] | 81 nM
14 | CS(=O)(=O)c1ccc(-c2cnc3[nH]cc(C4=CCN(C(=O)NC5CCOC5)CC4)c3c2)cc1 (stereo not shown) [Example 82, 4-(5-(4-(Methylsulfonyl)phenyl)-1H-pyrrolo[2,3-b]pyridin-3-yl)-N-(tetrahydrofuran-3-yl)-5,6-dihydropyridine-1(2H)-carboxamide] | 35 nM
15 | COc1ccc(-c2cnc3[nH]cc(C4=CCN(C(=O)OC5CCCC5)CC4)c3c2)cc1OC [Example 144, Cyclopentyl 4-(5-(3,4-dimethoxyphenyl)-1H-pyrrolo[2,3-b]pyridin-3-yl)-5,6-dihydropyridine-1(2H)-carboxylate] | 460 nM
16 | NS(=O)(=O)c1cccc(-c2cnc3[nH]cc(C4=CCN(C(=O)NC5CCCC5)CC4)c3c2)c1 [Example 57, N-cyclopentyl-4-(5-(3-sulfamoylphenyl)-1H-pyrrolo[2,3-b]pyridin-3-yl)-5,6-dihydropyridine-1(2H)-carboxamide] | 31 nM
17 | COc1ccc(-c2cnc3[nH]cc(C4=CCN(C(=O)c5ccc(C)s5)CC4)c3c2)cc1OC [Example 210, (4-(5-(3,4-dimethoxyphenyl)-1H-pyrrolo[2,3-b]pyridin-3-yl)-5,6-dihydropyridin-1(2H)-yl)(5-methylthiophen-2-yl)methanone] | 3000 nM
18 | COc1ccc(-c2cnc3[nH]cc(C4=CN(C(=O)OC(C)(C)C)CCC4)c3c2)cc1OC [Example 245, tert-butyl 5-(5-(3,4-dimethoxyphenyl)-1H-pyrrolo[2,3-b]pyridin-3-yl)-3,4-dihydropyridine-1(2H)-carboxylate] | 8800 nM
19 | CCC(C)OC(=O)N1CC=C(c2c[nH]c3ncccc23)CC1 (stereo not shown) [Example 141, sec-Butyl 4-(1H-pyrrolo[2,3-b]pyridin-3-yl)-5,6-dihydropyridine-1(2H)-carboxylate] | 500 nM
20 | CC(C)(C)OC(=O)N1CC=C(c2c[nH]c3ncc(-c4ccc(N5CCOCC5)nc4)cc23)CC1 [Example 157, tert-Butyl 4-(5-(6-morpholinopyridin-3-yl)-1H-pyrrolo[2,3-b]pyridin-3-yl)-5,6-dihydropyridine-1(2H)-carboxylate] | 360 nM
21 | CS(=O)(=O)c1cccc(-c2cnc3[nH]cc(C4=CCN(C(=O)c5cccs5)CC4)c3c2)c1 [Example 193, (4-(5-(3-(Methylsulfonyl)phenyl)-1H-pyrrolo[2,3-b]pyridin-3-yl)-5,6-dihydropyridin-1(2H)-yl)(thiophen-2-yl)methanone] | 36 nM
22 | CC(C)(C)OC(=O)N1CC=C(c2c[nH]c3ncc(-c4cccc(S(C)(=O)=O)c4)cc23)CC1 [Example 162, tert-Butyl 4-(5-(3-(methylsulfonyl)phenyl)-1H-pyrrolo[2,3-b]pyridin-3-yl)-5,6-dihydropyridine-1(2H)-carboxylate] | 78 nM
23 | O=C(OC1CCCC1)N1CC=C(c2c[nH]c3ncccc23)CC1 [Example 140, Cyclopentyl 4-(1H-pyrrolo[2,3-b]pyridin-3-yl)-3,6-dihydropyridine-1(2H)-carboxylate] | 310 nM
24 | O=C(OC1CCCC1)N1CC=C(c2c[nH]c3ncc(-c4cccc(C(=O)N5CCOCC5)c4)cc23)CC1 [Example 184, Cyclopentyl 4-(5-(3-(morpholine-4-carbonyl)phenyl)-1H-pyrrolo[2,3-b]pyridin-3-yl)-5,6-dihydropyridine-1(2H)-carboxylate] | 100 nM
25 | COc1ccc(-c2cnc3[nH]cc(C4=CCN(C(=O)c5cccs5)CC4)c3c2)cc1S(=O)(=O)N1CCOCC1 [Example 203, (4-(5-(4-methoxy-3-(morpholinosulfonyl)phenyl)-1H-pyrrolo[2,3-b]pyridin-3-yl)-5,6-di hydropyridin-1(2H)-yl)(thiophen-2-yl)methanone] | 39 nM
26 | CCS(=O)(=O)c1ccc(-c2cnc3[nH]cc(C4=CCN(C(=O)NC5CCCC5)CC4)c3c2)cc1 [Example 53, N-cyclopentyl-4-(5-(4-(ethylsulfonyl)phenyl)-1H-pyrrolo[2,3-b]pyridin-3-yl)-3,6-dihydropyridine-1(2H)-carboxamide] | 66 nM
27 | CN(C(=O)N1CC=C(c2c[nH]c3ncc(-c4ccc(S(N)(=O)=O)cc4)cc23)CC1)C1CCCC1 [Example 219, N-cyclopentyl-N-methyl-4-(5-(4-sulfamoylphenyl)-1H-pyrrolo[2,3-b]pyridin-3-yl)-5,6-dihydropyridine-1(2H)-carboxamide] | > 10000 nM
28 | O=C(OC1CCCC1)N1CC=C(c2c[nH]c3ncc(-c4ccc(CN5CCOCC5)s4)cc23)CC1 [Example 186, Cyclopentyl 4-(5-(5-(morpholinomethyl)thiophen-2-yl)-1H-pyrrolo[2,3-b]pyridin-3-yl)-5,6-dihydropyridine-1(2H)-carboxylate] | 160 nM
